Legend:
Assay in all cases: viability relative to DMSO control (fraction); higher = less drug effect (more viable cells)
Conditions in all cases: 48 h
SGC 0946 = compound: CC(C)N(CCCNC(=O)Nc1ccc(C(C)(C)C)cc1)C[C@H]1O[C@@H](n2cc(Br)c3c(N)ncnc32)[C@H](O)[C@@H]1O [SGC 0946]
Summary of the method: (§1)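 Cells were incubated for 48 h at 37 °C and 5% CO2 in RPMI-1640 with penicillin/streptomycin, L-glutamine and human serum, at 4 × 10^4 cells per well in 384-well plates with compounds pre-plated at five concentrations, one well each. These were primary mononuclear tumour cells, fresh or cryopreserved, Ficoll-isolated from blood or bone marrow or obtained from processed lymph node. Viability values are CellTiter-Glo luminescence relative to the median of 16 inner DMSO wells.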

Venetoclax = compound: CC1(C)CCC(CN2CCN(c3ccc(C(=O)NS(=O)(=O)c4ccc(NCC5CCOCC5)c([N+](=O)[O-])c4)c(Oc4cnc5[nH]ccc5c4)c3)CC2)=C(c2ccc(Cl)cc2)C1 [Venetoclax]
Summary of the method: as §1

EPZ-6438 = compound: CCN(c1cc(-c2ccc(CN3CCOCC3)cc2)cc(C(=O)NCc2c(C)cc(C)[nH]c2=O)c1C)C1CCOCC1 [EPZ-6438]
Summary of the method: as §1

CPI-169 = compound: CCS(=O)(=O)N1CCC([C@@H](C)n2c(C)c(C(=O)NCc3c(OC)cc(C)[nH]c3=O)c3ccccc32)CC1 [CPI-169]
Summary of the method: as §1

Vindesine = compound: CC[C@]1(O)C[C@@H]2CN(CCc3c([nH]c4ccccc34)[C@@](C(=O)OC)(c3cc4c(cc3OC)N(C)[C@H]3[C@@](O)(C(N)=O)[C@H](O)[C@]5(CC)C=CCN6CC[C@]43[C@@H]65)C2)C1 [Vindesine]
Summary of the method: as §1

[1] = compound: CCc1ccc(/C=C2/SC(=S)NC2=O)cc1
Summary of the method: as §1

Midostaurin hydrate = compound: CO[C@@H]1[C@H](N(C)C(=O)c2ccccc2)C[C@H]2O[C@]1(C)n1c3ccccc3c3c4c(c5c6ccccc6n2c5c31)C(=O)NC4 [Midostaurin hydrate]
Summary of the method: as §1

Everolimus = compound: CO[C@H]1C[C@@H]2CC[C@@H](C)[C@@](O)(O2)C(=O)C(=O)N2CCCC[C@H]2C(=O)O[C@H]([C@H](C)C[C@@H]2CC[C@@H](OCCO)[C@H](OC)C2)CC(=O)[C@H](C)/C=C(\C)[C@@H](O)[C@@H](OC)C(=O)[C@H](C)C[C@H](C)/C=C/C=C/C=C/1C [Everolimus]
Summary of the method: as §1

Idasanutlin (RS7388) = compound: COc1cc(C(=O)O)ccc1NC(=O)[C@@H]1N[C@@H](CC(C)(C)C)[C@](C#N)(c2ccc(Cl)cc2F)[C@H]1c1cccc(Cl)c1F [Idasanutlin (RS7388)]
Summary of the method: as §1

Tofacitinib = compound: C[C@@H]1CCN(C(=O)CC#N)C[C@@H]1N(C)c1ncnc2[nH]ccc12 [Tofacitinib]
Summary of the method: as §1

[2] = compound: C[C@H](NC(=O)CCC(F)(F)F)C(=O)N[C@@H]1C(=O)N(CCO)c2ncccc2-c2ccccc21
Summary of the method: as §1

[3] = compound: C[C@H]1C[C@@H](n2c(Nc3ccc(OC(F)(F)F)cc3)nc3cc(CCC(=O)O)ccc32)CC(C)(C)C1
Summary of the method: as §1

Entospletinib = compound: c1cn2cc(-c3ccc4cn[nH]c4c3)nc(Nc3ccc(N4CCOCC4)cc3)c2n1 [Entospletinib]
Summary of the method: as §1

## primary AML patient cells (S056)
SGC 0946; 0.024 µM
  viability: 0.869
SGC 0946; 0.12 µM
  viability: 0.736
SGC 0946; 0.6 µM
  viability: 0.996
SGC 0946; 3 µM
  viability: 0.96
SGC 0946; 15 µM
  viability: 0.825
Venetoclax; 0.00064 µM
  viability: 0.907
Venetoclax; 0.0032 µM
  viability: 0.445
Venetoclax; 0.016 µM
  viability: 0.29
Venetoclax; 0.08 µM
  viability: 0.269
Venetoclax; 0.4 µM
  viability: 0.0674
EPZ-6438; 0.024 µM
  viability: 1.17
EPZ-6438; 0.12 µM
  viability: 1.17
EPZ-6438; 0.6 µM
  viability: 0.909
EPZ-6438; 3 µM
  viability: 1.09
EPZ-6438; 15 µM
  viability: 0.809
CPI-169; 0.024 µM
  viability: 0.887
CPI-169; 0.12 µM
  viability: 0.869
CPI-169; 0.6 µM
  viability: 0.733
CPI-169; 3 µM
  viability: 0.787
CPI-169; 15 µM
  viability: 1.05
Vindesine; 0.016 µM
  viability: 0.915
Vindesine; 0.08 µM
  viability: 0.467
Vindesine; 0.4 µM
  viability: 0.242
Vindesine; 2 µM
  viability: 0.206
Vindesine; 10 µM
  viability: 0.177
[1]; 0.024 µM
  viability: 0.77
[1]; 0.12 µM
  viability: 0.689
[1]; 0.6 µM
  viability: 0.789
[1]; 3 µM
  viability: 0.807
[1]; 15 µM
  viability: 0.951
Midostaurin hydrate; 0.024 µM
  viability: 0.6
Midostaurin hydrate; 0.12 µM
  viability: 0.507
Midostaurin hydrate; 0.6 µM
  viability: 1.43
Midostaurin hydrate; 3 µM
  viability: 1.64
Midostaurin hydrate; 15 µM
  viability: 1.28
Everolimus; 0.0032 µM
  viability: 0.965
Everolimus; 0.016 µM
  viability: 0.92
Everolimus; 0.08 µM
  viability: 0.901
Everolimus; 0.4 µM
  viability: 0.62
Everolimus; 2 µM
  viability: 0.812
Idasanutlin (RS7388); 0.032 µM
  viability: 0.574
Idasanutlin (RS7388); 0.16 µM
  viability: 0.333
Idasanutlin (RS7388); 0.8 µM
  viability: 0.147
Idasanutlin (RS7388); 4 µM
  viability: 0.0924
Idasanutlin (RS7388); 20 µM
  viability: 0.0823
Tofacitinib; 0.024 µM
  viability: 0.85
Tofacitinib; 0.12 µM
  viability: 0.802
Tofacitinib; 0.6 µM
  viability: 0.689
Tofacitinib; 3 µM
  viability: 0.657
Tofacitinib; 15 µM
  viability: 0.448
[2]; 0.016 µM
  viability: 1.04
[2]; 0.08 µM
  viability: 0.994
[2]; 0.4 µM
  viability: 0.979
[2]; 2 µM
  viability: 1.55
[2]; 10 µM
  viability: 0.983
[3]; 0.024 µM
  viability: 0.631
[3]; 0.12 µM
  viability: 0.802
[3]; 0.6 µM
  viability: 0.722
[3]; 3 µM
  viability: 0.722
[3]; 15 µM
  viability: 0.702
Entospletinib; 0.024 µM
  viability: 1.05
Entospletinib; 0.12 µM
  viability: 0.788
Entospletinib; 0.6 µM
  viability: 0.981
Entospletinib; 3 µM
  viability: 0.99
Entospletinib; 15 µM
  viability: 0.979

## primary FL patient cells (S022)
SGC 0946; 0.024 µM
  viability: 0.902
SGC 0946; 0.12 µM
  viability: 0.937
SGC 0946; 0.6 µM
  viability: 0.808
SGC 0946; 3 µM
  viability: 0.9
SGC 0946; 15 µM
  viability: 0.484
Venetoclax; 0.00064 µM
  viability: 1.01
Venetoclax; 0.0032 µM
  viability: 0.894
Venetoclax; 0.016 µM
  viability: 0.67
Venetoclax; 0.08 µM
  viability: 0.313
Venetoclax; 0.4 µM
  viability: 0.066
EPZ-6438; 0.024 µM
  viability: 1.08
EPZ-6438; 0.12 µM
  viability: 1.04
EPZ-6438; 0.6 µM
  viability: 0.978
EPZ-6438; 3 µM
  viability: 0.997
EPZ-6438; 15 µM
  viability: 0.892
CPI-169; 0.024 µM
  viability: 1.07
CPI-169; 0.12 µM
  viability: 0.933
CPI-169; 0.6 µM
  viability: 1.14
CPI-169; 3 µM
  viability: 0.97
CPI-169; 15 µM
  viability: 0.953
Vindesine; 0.016 µM
  viability: 0.568
Vindesine; 0.08 µM
  viability: 0.451
Vindesine; 0.4 µM
  viability: 0.373
Vindesine; 2 µM
  viability: 0.348
Vindesine; 10 µM
  viability: 0.214
[1]; 0.024 µM
  viability: 0.83
[1]; 0.12 µM
  viability: 0.883
[1]; 0.6 µM
  viability: 0.901
[1]; 3 µM
  viability: 0.829
[1]; 15 µM
  viability: 0.842
Midostaurin hydrate; 0.024 µM
  viability: 1.05
Midostaurin hydrate; 0.12 µM
  viability: 1.01
Midostaurin hydrate; 0.6 µM
  viability: 1.11
Midostaurin hydrate; 3 µM
  viability: 1.03
Midostaurin hydrate; 15 µM
  viability: 0.774
Everolimus; 0.0032 µM
  viability: 0.943
Everolimus; 0.016 µM
  viability: 0.933
Everolimus; 0.08 µM
  viability: 0.911
Everolimus; 0.4 µM
  viability: 0.882
Everolimus; 2 µM
  viability: 0.966
Idasanutlin (RS7388); 0.032 µM
  viability: 0.837
Idasanutlin (RS7388); 0.16 µM
  viability: 0.831
Idasanutlin (RS7388); 0.8 µM
  viability: 0.772
Idasanutlin (RS7388); 4 µM
  viability: 0.608
Idasanutlin (RS7388); 20 µM
  viability: 0.579
Tofacitinib; 0.024 µM
  viability: 0.904
Tofacitinib; 0.12 µM
  viability: 0.859
Tofacitinib; 0.6 µM
  viability: 0.936
Tofacitinib; 3 µM
  viability: 0.914
Tofacitinib; 15 µM
  viability: 0.894
[2]; 0.016 µM
  viability: 1.18
[2]; 0.08 µM
  viability: 1.06
[2]; 0.4 µM
  viability: 0.968
[2]; 2 µM
  viability: 0.963
[2]; 10 µM
  viability: 0.961
[3]; 0.024 µM
  viability: 0.869
[3]; 0.12 µM
  viability: 0.929
[3]; 0.6 µM
  viability: 1
[3]; 3 µM
  viability: 0.873
[3]; 15 µM
  viability: 1.03
Entospletinib; 0.024 µM
  viability: 1.01
Entospletinib; 0.12 µM
  viability: 1.05
Entospletinib; 0.6 µM
  viability: 1.07
Entospletinib; 3 µM
  viability: 0.933
Entospletinib; 15 µM
  viability: 0.964
